Values joined by “and” are separate entries in the source; they are usually repeats but may differ in a detail not shown here. Identical values can stand only once.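 Compound exposure: 48 hours, 5 concentrations, 96-well plates. GI50 marks 50% less growth. TGI is the concentration that stops growth completely.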
What was measured:
Assay in all cases: NCI anticancer screen, dose series, 48 h
ACHN renal = test system: ACHN renal
BT-549 breast = test system: BT-549 breast
EKVX NSCLC = test system: EKVX NSCLC
HCT-116 colon = test system: HCT-116 colon
HS 578T breast = test system: HS 578T breast
HT29 colon = test system: HT29 colon
MOLT-4 leukemia = test system: MOLT-4 leukemia
SNB-75 CNS = test system: SNB-75 CNS
TK-10 renal = test system: TK-10 renal
UACC-62 melanoma = test system: UACC-62 melanoma

SMILES	GI50 (ACHN renal)	TGI (ACHN renal)	GI50 (BT-549 breast)	TGI (BT-549 breast)	GI50 (EKVX NSCLC)	TGI (EKVX NSCLC)	GI50 (HCT-116 colon)	TGI (HCT-116 colon)	TGI (HS 578T breast)	GI50 (HT29 colon)	TGI (HT29 colon)	GI50 (MOLT-4 leukemia)	TGI (MOLT-4 leukemia)	GI50 (SNB-75 CNS)	TGI (SNB-75 CNS)	GI50 (TK-10 renal)	TGI (TK-10 renal)	GI50 (UACC-62 melanoma)	TGI (UACC-62 melanoma)	GI50 (HS 578T breast)
CCCC(CCC)C(=O)O	> 100 µM	> 100 µM and 17400 µM	> 100 µM	> 20000 µM	> 20000 µM	> 20000 µM	> 100 µM	> 20000 µM	> 20000 µM	> 100 µM	> 100 µM and 12400 µM	> 100 µM	> 20000 µM	> 100 µM	> 100 µM and 18400 µM	> 100 µM	> 20000 µM	> 100 µM	> 20000 µM	
O=[N+]([O-])c1ccc2nc(=S)[nH]n2c1		> 100 µM		> 100 µM		> 100 µM		> 100 µM	> 100 µM		> 100 µM		> 100 µM		> 100 µM		> 100 µM		> 100 µM	
O=C1/C(=C/c2cccc(F)c2)CN(C(=O)C(Cl)Cl)C/C1=C\c1cccc(F)c1	0.212 µM	0.517 µM	0.252 µM	0.787 µM	0.263 µM	0.804 µM	0.0634 µM	0.239 µM	1.25 µM	0.113 µM	0.764 µM	0.0905 µM	3.6 µM	0.392 µM	1.73 µM	0.433 µM	1.45 µM	0.191 µM	0.43 µM	0.303 µM
CC1SC(c2cccc(Cl)c2)N(NC(=O)C(O)c2ccccc2)C1=O (centres undefined)	> 100 µM	> 100 µM	> 100 µM	> 100 µM	> 100 µM	> 100 µM	> 100 µM	> 100 µM	> 100 µM	> 100 µM	> 100 µM	> 100 µM	> 100 µM	79.1 µM	> 100 µM	> 100 µM	> 100 µM	39 µM	> 100 µM	> 100 µM
COC(=O)CCc1c(/C=C2\N=C(c3ccc[nH]3)C=C2OC)[nH]c(C)c1C(=O)OCc1ccccc1	0.297 µM	1.1 µM	0.335 µM	2.57 µM	0.733 µM	5.29 µM	0.122 µM	1.07 µM	3.78 µM	0.138 µM	1.68 µM	0.23 µM	5.1 µM	0.315 µM	1.8 µM	0.873 µM	7.05 µM	0.216 µM	0.491 µM	0.491 µM
CC1(C)N=C(N)N=C(N)N1c1ccc(CCC(=O)Nc2cccc(S(=O)(=O)F)c2)cc1	52.5 µM	> 100 µM	7.21 µM	> 100 µM	> 100 µM	> 100 µM	3.96 µM	> 100 µM	> 100 µM	5.62 µM	> 100 µM	19.8 µM	> 100 µM	5.34 µM	> 100 µM	5.57 µM	> 100 µM	5.3 µM	> 100 µM	> 100 µM
Nc1ncnc2c1ncn2C1OC(C(=O)OCCO)C(O)C1O (centres undefined)		> 100 µM		> 100 µM		> 100 µM		> 100 µM	> 100 µM		> 100 µM		> 100 µM		> 100 µM		> 100 µM		> 100 µM	
Cn1c(=O)c2[nH]cnc2n(C)c1=O.[CH2-]C(Cc1cccc2cc(C(=O)O)c(=O)oc12)OC.[Hg+2].[OH-] (centres undefined)	16.3 µM	29.9 µM	17.3 µM	31.2 µM	20.7 µM	37.4 µM	16.8 µM	30.5 µM	57.3 µM	17.1 µM	32 µM	8.81 µM	40.5 µM	17.7 µM	32.7 µM	19.3 µM	33.4 µM	17.3 µM	31.3 µM	22.2 µM
O=C1C=C(OCC=C(Cl)Cl)C(=O)c2ccccc21	7.02 µM	99.7 µM	4.94 µM	> 30.3 µM	3.33 µM	28.2 µM	2.52 µM	7.71 µM	8.47 µM	11.7 µM	> 100 µM	2.34 µM	> 24 µM	7.4 µM	56.9 µM	61.2 µM	> 100 µM	2.51 µM	7.64 µM	2.7 µM
NS(=O)(=O)c1ccc(N=Nc2c(=O)[nH]c3ccc4[nH]cccc4c23)cc1	0.694 µM	> 25 µM	0.498 µM	1.72 µM	2.1 µM	> 25 µM	0.151 µM	> 25 µM	> 6.85 µM	0.875 µM	> 25 µM	0.632 µM	3.31 µM	0.404 µM	1.3 µM	0.699 µM	2.24 µM	0.487 µM	1.62 µM	0.575 µM
CN1CCN(Cc2ccc(NC(=O)c3cncc(C#Cc4ncc5ccccn45)c3)cc2C(F)(F)F)CC1	0.967 µM	3.8 µM	1.98 µM	5.03 µM	1.3 µM	5.54 µM	0.674 µM	3.06 µM	3.61 µM	0.827 µM	8.96 µM	0.892 µM	5.82 µM	2.73 µM	5.77 µM	3.43 µM	8.21 µM	3.04 µM	6.76 µM	0.688 µM
CC1CC2(C)CC(=O)C1C1C(=O)N(CCN3CCOCC3)C(=O)C12 (centres undefined)	> 100 µM	> 100 µM	> 100 µM	> 100 µM	> 100 µM	> 100 µM	> 100 µM	> 100 µM	> 100 µM	> 100 µM	> 100 µM	> 100 µM	> 100 µM	> 100 µM	> 100 µM	> 100 µM	> 100 µM	> 100 µM	> 100 µM	> 100 µM
O=C(CN1CCN(c2ccccn2)CC1)Nc1ccc(Cl)cc1C(=O)c1ccccc1Cl	56.1 µM	> 100 µM	81.4 µM	> 100 µM	45.4 µM	> 100 µM	10 µM	> 100 µM	> 100 µM	8.92 µM	> 100 µM	5.49 µM	> 100 µM	> 100 µM	> 100 µM	> 100 µM	> 100 µM	12.8 µM	> 100 µM	> 100 µM
C=CC(=O)Nc1cccc(Nc2nc(Nc3ccc(N4CCN(C(C)=O)CC4)cc3OC)ncc2C(F)(F)F)c1	2.96 µM and 1.84 µM	> 30.3 µM	4.14 µM	> 10 µM and 10.6 µM	1.36 µM and 1.68 µM	> 10 µM and 12.4 µM	3.96 µM and 2.54 µM	> 54.4 µM	> 95.9 µM	2.18 µM and 1.55 µM	> 27.1 µM	5.47 µM and 4.04 µM	> 58.5 µM	5.18 µM and 2.47 µM	> 10 µM and 15.3 µM	0.32 µM and 0.441 µM	2.16 µM and 4.03 µM	2.7 µM	22.6 µM	3.73 µM and 3.36 µM
COc1ccc(-c2cc3c(N)ncnc3o2)cc1	> 25 µM	> 25 µM	> 25 µM	> 25 µM	3.59 µM	> 25 µM	> 25 µM	> 25 µM	> 25 µM	> 22.7 µM	> 25 µM	> 25 µM	> 25 µM	24.9 µM	> 25 µM	9.44 µM	> 25 µM	5.72 µM	> 25 µM	5.85 µM
NC(N)=NC(N)=NCc1ccco1	> 1250 µM	> 1250 µM	336 µM and 974 µM	> 1250 µM	117 µM and 31.7 µM	> 1250 µM	508 µM and 492 µM	> 1250 µM	> 1250 µM	> 1250 µM	> 1250 µM	> 1250 µM	> 1250 µM	> 1250 µM	> 1250 µM	> 1250 µM	> 1250 µM	748 µM	> 1250 µM	> 1250 µM

Reference: PubChem BioAssay (NCI)
